Here are results for 22 compounds from patent US9238656B2, “Imidazo[4,5-b]pyridine derivatives as ALK and JAK modulators for the treatment of proliferative disorders” (priority 2012, dated 2016).

Assay [1] deals with baculovirus-expressed ALK (Homo sapiens, UniProt Q9UM73). Description: ALK kinase inhibition, TRF/ELISA. It is filed as biochemical. The conditions noted are these: read-out: ALK Potency. The method in brief: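 Eu-PT66 anti-phosphotyrosine TRF read-out measured phosphorylation of plate-bound GST-PLC-γ (coated at 10 μg/mL). The phosphorylation was driven by 30 ng/mL ALK for 15 minutes at 37° C.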
baculovirus-expressed ALK, sequence (Q9UM73 19-1620): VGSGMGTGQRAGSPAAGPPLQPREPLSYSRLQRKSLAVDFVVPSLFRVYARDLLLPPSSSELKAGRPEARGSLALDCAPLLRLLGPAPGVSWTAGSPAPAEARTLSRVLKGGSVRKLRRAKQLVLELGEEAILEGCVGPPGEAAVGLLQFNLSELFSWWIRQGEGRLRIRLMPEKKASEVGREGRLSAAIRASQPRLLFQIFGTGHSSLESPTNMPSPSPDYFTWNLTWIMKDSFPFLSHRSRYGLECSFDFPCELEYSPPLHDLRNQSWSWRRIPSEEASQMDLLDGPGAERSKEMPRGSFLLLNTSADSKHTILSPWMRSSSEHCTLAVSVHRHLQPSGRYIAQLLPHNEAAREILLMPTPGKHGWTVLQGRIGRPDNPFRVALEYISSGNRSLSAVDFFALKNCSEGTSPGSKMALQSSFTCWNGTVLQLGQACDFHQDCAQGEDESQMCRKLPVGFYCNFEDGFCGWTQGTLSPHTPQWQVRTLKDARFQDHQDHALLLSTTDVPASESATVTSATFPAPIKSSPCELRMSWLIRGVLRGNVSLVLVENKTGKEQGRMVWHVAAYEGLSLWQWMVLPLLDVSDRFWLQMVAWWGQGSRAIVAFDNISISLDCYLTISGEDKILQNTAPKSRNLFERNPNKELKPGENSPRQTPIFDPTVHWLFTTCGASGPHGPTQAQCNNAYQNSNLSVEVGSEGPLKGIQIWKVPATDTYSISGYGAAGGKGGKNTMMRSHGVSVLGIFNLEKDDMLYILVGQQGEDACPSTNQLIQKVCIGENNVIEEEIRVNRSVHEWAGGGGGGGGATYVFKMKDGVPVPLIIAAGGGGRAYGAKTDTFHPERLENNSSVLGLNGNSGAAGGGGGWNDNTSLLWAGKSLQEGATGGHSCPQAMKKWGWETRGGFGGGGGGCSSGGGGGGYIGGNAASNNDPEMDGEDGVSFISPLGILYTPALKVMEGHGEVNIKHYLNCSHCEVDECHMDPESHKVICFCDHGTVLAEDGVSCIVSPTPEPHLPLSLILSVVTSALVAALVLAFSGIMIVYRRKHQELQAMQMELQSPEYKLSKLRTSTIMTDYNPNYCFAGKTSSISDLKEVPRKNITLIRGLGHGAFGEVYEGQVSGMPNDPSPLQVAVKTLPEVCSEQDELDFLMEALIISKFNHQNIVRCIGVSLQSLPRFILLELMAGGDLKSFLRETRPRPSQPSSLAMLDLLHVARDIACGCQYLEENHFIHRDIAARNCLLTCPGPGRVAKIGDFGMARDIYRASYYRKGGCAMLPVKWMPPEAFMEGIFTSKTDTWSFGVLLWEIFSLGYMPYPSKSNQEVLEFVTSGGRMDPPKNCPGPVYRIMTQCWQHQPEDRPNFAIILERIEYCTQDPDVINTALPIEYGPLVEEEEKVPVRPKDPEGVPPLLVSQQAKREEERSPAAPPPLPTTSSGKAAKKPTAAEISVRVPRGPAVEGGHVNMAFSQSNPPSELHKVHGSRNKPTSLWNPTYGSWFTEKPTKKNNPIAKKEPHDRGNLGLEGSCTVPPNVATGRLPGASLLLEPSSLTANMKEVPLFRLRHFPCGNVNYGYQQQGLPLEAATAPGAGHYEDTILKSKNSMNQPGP

Assay [2] has as its target baculovirus-expressed JAK2 kinase (Homo sapiens, UniProt O60674). Put plainly: biochemical. As to conditions: 0.2 μM ATP; read-out: JAK2 Potency. Summed up:
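IC50 derived by variable-slope sigmoidal fit of percent inhibition against log compound concentration. Baculovirus-expressed JAK2 (15 ng/mL) phosphorylated a plate-bound biotinylated 15-mer peptide for 20 min at room temperature; detection by time-resolved fluorescence.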

Molecules are shown by their SMILES. Counter-ions that a name gives are not always drawn.

baculovirus-expressed JAK2 kinase, sequence (O60674 whole entry): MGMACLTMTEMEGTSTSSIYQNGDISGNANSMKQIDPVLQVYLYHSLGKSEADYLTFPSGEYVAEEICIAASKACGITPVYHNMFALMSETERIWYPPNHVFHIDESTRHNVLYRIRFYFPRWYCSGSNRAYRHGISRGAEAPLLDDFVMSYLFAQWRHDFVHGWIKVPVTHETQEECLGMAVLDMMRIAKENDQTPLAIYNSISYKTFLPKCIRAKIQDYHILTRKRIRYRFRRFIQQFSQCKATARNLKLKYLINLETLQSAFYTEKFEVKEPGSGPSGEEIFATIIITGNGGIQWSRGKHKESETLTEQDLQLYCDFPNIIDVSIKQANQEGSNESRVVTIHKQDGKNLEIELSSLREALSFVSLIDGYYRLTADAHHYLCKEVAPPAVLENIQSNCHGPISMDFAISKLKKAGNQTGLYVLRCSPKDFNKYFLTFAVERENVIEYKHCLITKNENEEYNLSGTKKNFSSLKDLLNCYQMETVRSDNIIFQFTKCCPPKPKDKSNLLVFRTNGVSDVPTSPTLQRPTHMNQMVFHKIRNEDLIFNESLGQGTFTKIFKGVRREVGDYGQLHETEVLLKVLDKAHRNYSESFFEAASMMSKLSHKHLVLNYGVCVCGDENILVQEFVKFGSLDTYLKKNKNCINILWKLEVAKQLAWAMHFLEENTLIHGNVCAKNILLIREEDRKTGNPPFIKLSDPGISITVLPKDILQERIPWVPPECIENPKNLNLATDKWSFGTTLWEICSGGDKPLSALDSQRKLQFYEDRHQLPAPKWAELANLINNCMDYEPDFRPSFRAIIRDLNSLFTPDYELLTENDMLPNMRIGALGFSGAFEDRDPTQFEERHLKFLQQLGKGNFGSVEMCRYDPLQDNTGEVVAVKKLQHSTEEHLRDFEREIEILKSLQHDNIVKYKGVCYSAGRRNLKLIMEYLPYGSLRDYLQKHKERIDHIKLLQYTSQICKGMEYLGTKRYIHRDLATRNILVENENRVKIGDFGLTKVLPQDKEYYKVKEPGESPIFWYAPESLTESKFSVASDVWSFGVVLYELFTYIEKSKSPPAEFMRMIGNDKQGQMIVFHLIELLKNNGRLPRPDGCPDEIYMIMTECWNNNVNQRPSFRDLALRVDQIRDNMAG

As to `O=C(NC1CC1)[C@@H]1[C@H](Nc2c(Cl)cnc3[nH]c(-c4sc(N5CC[C@@H](O)C5)nc4Cl)nc23)[C@H]2C=C[C@@H]1C2` [Compound CLXXIII, (1S,2S,3R,4R)-3-[6-Chloro-2-[4-chloro-2-((R)-3-hydroxy-pyrrolidin-1-yl)-thiazol-5-yl]-3H-imidazo[4,5-b]pyridin-7-ylamino]-bicyclo[2.2.1]hept-5-ene-2-carboxylic acid cyclopropylamide], the results for the IC50 in assay [1] and in assay [2] were less than 100 nM and 100 to 1000 nM, respectively.
Taken in the same sequence, the figures for `CN1CCC(c2nc3c(N[C@H]4[C@@H](C(N)=O)[C@@H]5C=C[C@H]4C5)c(Cl)cnc3[nH]2)CC1` [Compound CL, (1S,2S,3R,4R)-3-[6-Chloro-2-(1-methyl-piperidin-4-yl)-3H-imidazo[4,5-b]pyridin-7-ylamino]-bicyclo[2.2.1]hept-5-ene-2-carboxylic acid amide] were 1000 to 10000 nM and greater than 10000 nM.
Taken in the same sequence, the figures for `CN1CCN(Cc2ccc(-c3nc4c(N[C@@H]5CCCC[C@H]5NS(C)(=O)=O)c(Cl)cnc4[nH]3)cc2)CC1` [CCLIV, N-((1R,2R)-2-{6-Chloro-2-[4-(4-methyl-piperazin-1-ylmethyl)-phenyl]-3H-imidazo[4,5-b]pyridin-7-ylamino}-cyclohexyl)-methanesulfonamide] were less than 100 nM and less than 100 nM.
Consider `NC(=O)[C@@H]1[C@H](Nc2c(Br)cnc3[nH]c(-c4ccc5c(c4)CCC4(CCNCC4)O5)nc23)[C@H]2C=C[C@@H]1C2` [Compound CXIV, (1S,2S,3R,4R)-3-[(6-bromo-2-spiro[chromane-2,4′-piperidine]-6-yl-3H-imidazo[4,5-b]pyridin-7-yl)amino]bicyclo[2.2.1]hept-5-ene-2-carboxamide], for which the IC50 in assay [1] and in assay [2] was less than 100 nM each time.
For the compound `O=C(NC1CC1)[C@@H]1[C@H](Nc2c(Cl)cnc3[nH]c(-c4sc(N5CCOCC5)nc4Cl)nc23)[C@H]2C=C[C@@H]1C2` [Compound CLXXIV, (1S,2S,3R,4R)-3-[6-Chloro-2-(4-chloro-2-morpholin-4-yl-thiazol-5-yl)-3H-imidazo[4,5-b]pyridin-7-ylamino]-bicyclo[2.2.1]hept-5-ene-2-carboxylic acid cyclopropylamide], the IC50 in assay [1] was less than 100 nM; in assay [2], 100 to 1000 nM.
Taken in the same sequence, the figures for `CC(O)CN1CCC(Oc2cccc(-c3nc4c(N[C@H]5[C@@H](C(N)=O)[C@@H]6C=C[C@H]5C6)c(Cl)cnc4[nH]3)c2)CC1` (stereo partly drawn) [Compound CCLI, (1S,2S,3R,4R)-3-(6-chloro-2-(3-(1-(2-hydroxypropyl)piperidin-4-yloxy)phenyl)-3H-imidazo[4,5-b]pyridine-7-ylamino)pyridin[2.2.1]hept-5-ene-2-carboxamide] were less than 100 nM and less than 100 nM.
Taken in the same sequence, the figures for `CN1CCC(Oc2ccc(-c3nc4c(N[C@H]5[C@@H](C(N)=O)[C@@H]6C=C[C@H]5C6)c(Cl)cnc4[nH]3)cc2)CC1` [Compound CCXLV, (1S,2S,3R,4R)-3-(6-chloro-2-(4-(1-methylpiperidin-4-yloxy)phenyl)-3H-imidazo[4,5-b]pyridin-7-ylamino)bicyclo[2.2.1]hept-5-ene-2-carboxamide] were less than 100 nM and less than 100 nM.
Turning to `NC(=O)[C@@H]1[C@H](Nc2c(Cl)cnc3[nH]c(-c4cccc(C(=O)NCC(=O)O)c4)nc23)[C@H]2C=C[C@@H]1C2` [Compound CCXXVII, 2-(3-(7-((1R,2R,3S,4S)-3-carbamoylbicyclo[2.2.1]hept-5-en-2-ylamino)-6-chloro-3H-imidazo[4,5-b]213yridine-2-yl)benzamido)acetic acid], the results for the IC50 in assay [1] and in assay [2] were 1000 to 10000 nM and less than 100 nM, respectively.
`NC(=O)[C@@H]1[C@H](Nc2c(Cl)cnc3[nH]c(-c4cccc(OCC(=O)O)c4)nc23)[C@H]2C=C[C@@H]1C2` [Compound CCLXIII, 2-(3-(7-((1R,2R,3S,4S)-3-carbamoylbicyclo[2.2.1]hept-5-en-2-ylamino)-6-chloro-3H-imidazo[4,5-b]pyridin-2-yl)phenoxy)acetic acid]: the figures for the IC50 in assay [1] and in assay [2] were 100 to 1000 nM and less than 100 nM, respectively.
`CC(=O)N1CCC(n2cc(-c3nc4c(N[C@H]5[C@@H](C(N)=O)[C@@H]6C=C[C@H]5C6)c(Cl)cnc4[nH]3)cn2)CC1` [Compound LXI, (1S,2S,3R,4R)-3-{2-[1-(1-Acetyl-piperidin-4-yl)-1H-pyrazol-4-yl]-6-chloro-3H-imidazo[4,5-b]pyridine-7-ylamino}-bicyclo[2.2.1]hept-5-ene-2-carboxylic acid amide]: the IC50 in assay [1] was 100 to 1000 nM; in assay [2], less than 100 nM.
For `CC(C)NC(=O)[C@@H]1[C@H](Nc2c(Cl)cnc3[nH]c(-c4sc(N5CCOCC5)nc4Cl)nc23)[C@H]2C=C[C@@H]1C2` [Compound CLXIII, (1S,2S,3R,4R)-3-[6-Chloro-2-(4-chloro-2-morpholin-4-yl-thiazol-5-yl)-3H-imidazo[4,5-b]pyridin-7-ylamino]-bicyclo[2.2.1]hept-5-ene-2-carboxylic acid isopropylamide], in that order: less than 100 nM and greater than 10000 nM.
In the case of `COc1cc(N2CCOCC2)ccc1-c1nc2c(NC34CCC(C)(C(=O)C3)C4(C)C)c(Cl)cnc2[nH]1` (centres unmarked) [Compound CC, 4-(6-chloro-2-(2-methoxy-4-morpholinophenyl)-3H-imidazo[4,5-b]pyridin-7-ylamino)-1,7,7-trimethylbicyclo[2.2.1]heptan-2-one], the IC50 in assay [1] and in assay [2] was 100 to 1000 nM in each case.
Take `COc1cc(CN2CCNCC2)ccc1-c1nc2c(N[C@H]3[C@@H](C(N)=O)[C@@H]4C=C[C@H]3C4)c(Cl)cnc2[nH]1` [Compound XLII, (1S,2S,3R,4R)-3-[6-Chloro-2-(2-methoxy-4-piperazin-1-ylmethyl-phenyl)-3H-imidazo[4,5-b]pyridine-7-ylamino]-bicyclo[2.2.1]hept-5-ene-2-carboxylic acid amide]: the IC50 in assay [1] was less than 100 nM; in assay [2] it was 100 to 1000 nM.
In the case of `NC(=O)[C@@H]1[C@H](Nc2c(Cl)cnc3[nH]c(-c4cccnc4N4CCOCC4)nc23)[C@H]2C=C[C@@H]1C2` [Compound XXXIV, (1S,2S,3R,4R)-3-[6-Chloro-2-(2-morpholin-4-yl-pyridin-3-yl)-3H-imidazo[4,5-b]pyridine-7-ylamino]-bicyclo[2.2.1]hept-5-ene-2-carboxylic acid amide], the IC50 in assay [1] is 1000 to 10000 nM; in assay [2], greater than 10000 nM.
Taken in the same sequence, the figures for `CN1CCN(Cc2ccc(-c3nc4c(N[C@H]5[C@@H](C(N)=O)[C@@H]6C=C[C@H]5C6)c(Cl)cnc4[nH]3)cc2)CC1` [Compound XX, (1S,2S,3R,4R)-3-{6-Chloro-2-[4-(4-methyl-piperazin-1-ylmethyl)-phenyl]-3H-imidazo[4,5-b]pyridin-7-ylamino}-bicyclo[2.2.1]hept-5-ene-2-carboxylic acid amide; compound with trifluoro-acetic acid bis trifluoroacetic acid salt] were less than 100 nM and less than 100 nM.
Taken in the same sequence, the figures for `NC(=O)[C@@H]1[C@H](Nc2c(Cl)cnc3[nH]c(-c4ccc(Cl)cc4)nc23)[C@H]2C=C[C@@H]1C2` [Compound CXLI, (1S,2S,3R,4R)-3-[6-Chloro-2-(4-chloro-phenyl)-3H-imidazo[4,5-b]pyridin-7-ylamino]-bicyclo[2.2.1]hept-5-ene-2-carboxylic acid amide] were 100 to 1000 nM and less than 100 nM.
Taken in the same sequence, the figures for `COc1ccc(CN2CCOCC2)cc1-c1nc2c(N[C@@H]3CCCC[C@H]3NS(C)(=O)=O)c(Cl)cnc2[nH]1` [Compound LXXIV, N-{(1R,2R)-2-[6-Chloro-2-(2-methoxy-5-morpholin-4-ylmethyl-phenyl)-3H-imidazo[4,5-b]pyridine-7-ylamino]-cyclohexyl}-methanesulfonamide] were 100 to 1000 nM and greater than 10000 nM.
Turning to `NC(=O)[C@@H]1[C@H](Nc2c(Cl)cnc3[nH]c(-c4ccc(C(=O)O)cc4)nc23)[C@H]2C=C[C@@H]1C2` [Compound CCXVIII, 4-(7-((1R,2R,3S,4S)-3-carbamoylbicyclo[2.2.1]hept-5-en-2-ylamino)-6-chloro-3H-imidazo[4,5-b]pyridin-2-yl)benzoic acid], the results for the IC50 in assay [1] and in assay [2] were 100 to 1000 nM and less than 100 nM, respectively.
For `NC(=O)[C@@H]1[C@H](Nc2c(Br)cnc3[nH]c(-c4sc(N5CCOCC5)nc4Cl)nc23)[C@H]2C=C[C@@H]1C2` [Compound CLXI, (1S,2S,3R,4R)-3-[6-Bromo-2-(4-chloro-2-morpholin-4-yl-thiazol-5-yl)-3H-imidazo[4,5-b]pyridin-7-ylamino]-bicyclo[2.2.1]hept-5-ene-2-carboxylic acid amide], in that order: less than 100 nM and less than 100 nM.
For `CC(C)NC(=O)[C@@H]1[C@H](Nc2c(Cl)cnc3[nH]c(-c4cnn(C)c4)nc23)[C@H]2C=C[C@@H]1C2` [Compound CLXXXVII], in that order: 100 to 1000 nM and 100 to 1000 nM.
For `NC(=O)[C@@H]1[C@H](Nc2c(Br)cnc3[nH]c(-c4ccccc4Cl)nc23)[C@H]2C=C[C@@H]1C2` [Compound CXLIX, (1S,2S,3R,4R)-3-[6-Bromo-2-(2-chloro-phenyl)-3H-imidazo[4,5-b]pyridin-7-ylamino]-bicyclo[2.2.1]hept-5-ene-2-carboxylic acid amide], in that order: 100 to 1000 nM and less than 100 nM.
With `CC(O)CN1CCN(C(=O)COc2ccc(-c3nc4c(N[C@H]5[C@@H](C(N)=O)[C@@H]6C=C[C@H]5C6)c(Cl)cnc4[nH]3)cc2)CC1` (stereo partly drawn) [Compound CCXLII, (1S,2S,3R,4R)-3-(6-chloro-2-(4-(2-(4-(2-hydroxypropyl)piperazin-1-yl)-2-oxoethoxy)phenyl)-3H-imidazo[4,5-b]pyridin-7-ylamino)bicyclo[2.2.1]hept-5-ene-2-carboxamide], the IC50 in assay [1] and in assay [2] was less than 100 nM throughout.
